Laboratory results as given in patent US20060014826A1, “Dioxocyclohexane carboxylic acid phenyl amide derivatives for modulating voltage-gated potassium channels and pharmaceutical compositions containing the same” (Wyeth, priority 2004, published 2006).

Legend:
[1] = target: T1, human Kv1.1/Kvβ1 potassium ion channel complex (Homo sapiens, UniProt Q09470+Q14722); experiment: Inhibiting the inactivation of Kv1.1/Kvβ1 potassium ion channel complex, voltage clamp current recordings in Xenopus oocytes; type: cell-based; conditions: relative to control oocytes without test compound, read-out: Percent Increase in Steady State Current (@ concentration shown in parentheses)
T1 construct: expressed in transfected cells; host or cells: Xenopus oocytes injected with cRNA
T1 sequence (Q09470 whole entry): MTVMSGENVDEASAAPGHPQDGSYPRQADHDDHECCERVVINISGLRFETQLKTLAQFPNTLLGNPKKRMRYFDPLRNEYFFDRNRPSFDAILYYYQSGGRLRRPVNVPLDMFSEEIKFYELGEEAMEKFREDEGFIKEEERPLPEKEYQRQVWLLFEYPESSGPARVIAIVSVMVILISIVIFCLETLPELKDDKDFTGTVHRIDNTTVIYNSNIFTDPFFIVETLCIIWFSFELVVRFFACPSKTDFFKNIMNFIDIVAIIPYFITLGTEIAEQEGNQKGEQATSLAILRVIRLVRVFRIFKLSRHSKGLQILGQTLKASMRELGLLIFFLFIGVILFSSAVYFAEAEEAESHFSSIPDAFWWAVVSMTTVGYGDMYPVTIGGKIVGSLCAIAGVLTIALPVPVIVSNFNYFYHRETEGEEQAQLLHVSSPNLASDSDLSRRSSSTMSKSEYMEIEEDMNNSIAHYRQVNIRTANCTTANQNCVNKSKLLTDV
T1 sequence (Q14722 whole entry): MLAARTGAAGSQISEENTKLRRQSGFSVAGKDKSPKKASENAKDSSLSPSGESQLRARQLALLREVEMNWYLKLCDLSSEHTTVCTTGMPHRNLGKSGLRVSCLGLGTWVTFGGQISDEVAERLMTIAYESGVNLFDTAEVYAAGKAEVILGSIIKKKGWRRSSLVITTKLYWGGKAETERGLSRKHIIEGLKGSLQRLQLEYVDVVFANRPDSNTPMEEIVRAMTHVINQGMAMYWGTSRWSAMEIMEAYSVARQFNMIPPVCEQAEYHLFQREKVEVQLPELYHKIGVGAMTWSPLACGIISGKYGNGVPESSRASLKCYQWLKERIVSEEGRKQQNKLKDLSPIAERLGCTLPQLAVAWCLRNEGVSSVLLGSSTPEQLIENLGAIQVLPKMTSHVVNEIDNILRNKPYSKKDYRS
Procedure: Compounds useful in this invention were examined for their ability to inhibit the inactivation of the human Kv1.1/Kvβ1 potassium ion channel complex in vitro using electrophysiological current recordings on inactivating Kv1.1/Kvβ1channels expressed in Xenopus oocytes. The following procedure was used.
Xenopus oocytes were harvested from frogs under general anesthesia using aseptic techniques. Oocytes were treated with 2 mg/ml collagenase for 1-1.5 hr, defolliculated, and injected with 40 nL cRNA (a mixture of hKv1.1 and hKvβ1) produced using standard molecular biological techniques (Sambrook, et al., 1989, Molecular Cloning: A Laboratory Manual). The concentration of hKv1.1/hKvβ1 cRNA varies, but was generally about 50 ng/μL hKv1.1 and […] hkβ1.
Currents were recorded using standard voltage clamp amplifiers at room temperature. Recordings were performed in the bath solution “ND-96” containing 96 mM NaCl, 2 mM KCl, 1 mm CaCl2, 1 mM MgCl2, 10 mM HEPES and […] Gentamycin (pH=7.6). The pipette (electrode) solution generally consisted of 3 mM KCl. Electrodes were made from WPI TW150F-4 borosilicate glass (or equivalent) and typically had resistances of 0.5-1.5 Mohms. The standard current—voltage (IV) pulse protocol consisted of voltage steps from −60 mV to +50 mV, in 10 mV increments for 200 ms, at a frequency of one IV set per 2 minutes. Data were digitized and analyzed by standard software packages.
Test compounds where first dissolved in DMSO to an initial concentration of 1-100 mM. Working dilutions of 1:2000 to 1:500 were made in the bath solution for final concentrations in the micromolar range. The bath solutions containing the test compounds were applied by bath perfusion using gravity or pump-driven flow. A minimum of 2 mL (10 times the bath volume) over 3 minutes were flowed for each compound concentration tested. Data were averaged across at least 3 cells tested for each concentration.
Test compounds were examined for their ability to inhibit the inactivation of the steady state portion of the IV curve.

melting point	activation at 50 µM [1]	activation at 100 µM [1]	activation at 300 µM [1]	SMILES
113 to 116 °C				CC1(C)CC(=O)C(C(=S)Nc2ccc(Cl)c(Cl)c2)C(=O)C1 [Example 3, N-(3,4-dichlorophenyl)-4,4-dimethyl-2,6-dioxocyclohexanecarbothioamide]
144 to 145 °C	173%			CC1(C)COC(=O)C(C(=O)Nc2ccc(Cl)c(C(F)(F)F)c2)C1=O (centres unmarked) [Example 26, N-[4-chloro-3-(trifluoromethyl)phenyl]-5,5-dimethyl-2,4-dioxotetrahydro-2H-pyran-3-carboxamide]
156 to 156.4 °C	68%			CC1(C)CC(=O)C(C(=O)Nc2ccc(Cl)c(C(F)(F)F)c2)C(=O)O1 (centres unmarked) [Example 19, N-[4-chloro-3-(trifluoromethyl)phenyl]-6,6-dimethyl-2,4-dioxotetrahydro-2H-pyran-3-carboxamide]
108 to 110 °C	106%			O=C1CSCC(=O)C1C(=O)Nc1ccc(Cl)c(C(F)(F)F)c1 [Example 11, N-[4-chloro-3-(trifluoromethyl)phenyl]-3,5-dioxotetrahydro-2H-thiopyran-4-carboxamide]
	16%			CC1(C)CC(=O)C(C(=O)Nc2ccc(Cl)c(C(F)(F)F)c2)C(=O)C1 [Example 5, N-[4-chloro-3-(trifluoromethyl)phenyl]-4,4-dimethyl-2,6-dioxocyclohexanecarboxamide]
		45%		CC1(C)CC(=O)C(C(=O)Nc2ccc(Cl)cc2C(F)(F)F)C(=O)C1 [Example 7, N-[4-chloro-2-(trifluoromethyl)phenyl]-4,4-dimethyl-2,6-dioxocyclohexanecarboxamide]
87 to 88 °C	98%			CCC1(C)CC(=O)C(C(=O)Nc2ccc(Cl)c(C(F)(F)F)c2)C(=O)C1 (centres unmarked) [Example 14, N-(4-chloro-3-trifluoromethylphenyl)-4-ethyl-4-methyl-2,6-dioxocyclohexanecarboxamide]
			95%	O=C1OC2(CCCC2)OC(=O)C1C(=S)Nc1ccc(Cl)c(C(F)(F)F)c1 [Example 34, 7,9-Dioxo-6,10-dioxa-spiro[4.5]decane-8-carbothioic acid(4-chloro-3-trifluoromethyl-phenyl)-amide]
101 to 102 °C			9%	CC1(C)CC(=O)C(C(=S)Nc2ccc(Cl)c(C(F)(F)F)c2)C(=O)C1 [Example 4, N-[4-chloro-3-(trifluoromethyl)phenyl]-4,4-dimethyl-2,6-dioxocyclohexane-carbothioamide]

The remaining lines, values behind:

SMILES	melting point	activation at 50 µM [1]	activation at 100 µM [1]	activation at 300 µM [1]
CC1(C)CC(=O)C(C(=O)Nc2cc(Cl)cc(Cl)c2)C(=O)C1F (centres unmarked) [Example 28, 3-Fluoro-4,4-dimethyl-2,6-dioxo-cyclohexanecarboxylic acid(3,5-dichloro-phenyl)-amide]		279%		
CC1(C)CC(=O)C(C(=O)Nc2ccc(Cl)c(Cl)c2)C(=O)O1 (centres unmarked) [Example 23, N-(3,4-dichlorophenyl)-6,6-dimethyl-2,4-dioxotetrahydro-2H-pyran-3-carboxamide]	212 to 215 °C	22%		
CC1(C)COC(=O)C(C(=O)Nc2ccc(C(F)(F)F)cc2)C1=O (centres unmarked) [Example 25, N-[4-(trifluoromethyl)phenyl]-5,5-dimethyl-2,4-dioxotetrahydro-2H-pyran-3-carboxamide]		10%		
CC1(C)CC(=O)C(C(=O)Nc2cccc(C(F)(F)F)c2)C(=O)O1 (centres unmarked) [Example 21, N-[3-(trifluoromethyl)phenyl]-6,6-dimethyl-2,4-dioxotetrahydro-2H-pyran-3-carboxamide]	149.6 to 150.1 °C	13%		
CCC1(C)CC(=O)C(C(=O)Nc2ccc(F)c(Cl)c2)C(=O)C1 (centres unmarked) [Example 16, N-(3-chloro-4-fluororphenyl)-4-ethyl-4-methyl-2,6-dioxocyclohexanecarboxamide]	91 to 92 °C	18%		
CCC1(C)CC(=O)C(C(=O)Nc2ccc(Cl)c(Cl)c2)C(=O)C1 (centres unmarked) [Example 15, N-(3,4-dichlorophenyl)-4-ethyl-4-methyl-2,6-dioxocyclohexanecarboxamide]	74 to 75 °C	64%		
CC(C)C1CC(=O)C(C(=O)Nc2ccc(Cl)c(Cl)c2)C(=O)C1 (centres unmarked) [Example 10, N-(3,4-dichlorophenyl)-4-isopropyl-2,6-dioxocyclohexanecarboxamide]	138 °C	38%		
CC1(C)CC(=O)C(C(=O)Nc2cc(F)cc(F)c2)C(=O)C1F (centres unmarked) [Example 29, 3-Fluoro-4,4-dimethyl-2,6-dioxo-cyclohexanecarboxylic acid(3,5-difluoro-phenyl)-amide]	131 to 132 °C	258%		
CC1(C)CC(=O)C(C(=O)Nc2ccc(C(F)(F)F)cc2)C(=O)O1 (centres unmarked) [Example 20, N-[4-(trifluoromethyl)phenyl]-6,6-dimethyl-2,4-dioxotetrahydro-2H-pyran-3-carboxamide]	175.9 to 176.4 °C	17%		
CCC1(C)CC(=O)C(C(=O)Nc2cc(C(F)(F)F)cc(C(F)(F)F)c2)C(=O)C1 (centres unmarked) [Example 18, N-(3,5-bis-trifluoromethylphenyl)-4-ethyl-4-methyl-2,6-dioxocyclohexanecarboxamide]	72 to 73 °C	106%		
CC1(C)CC(=O)C(C(=O)Nc2ccccc2[N+](=O)[O-])C(=O)C1 [Example 6, 4,4-dimethyl-N-(2-nitrophenyl)-2,6-dioxocyclohexanecarboxamide]			58%	
CC1(C)CC(=O)C(C(=O)Nc2ccc([N+](=O)[O-])cc2)C(=O)C1 [Example 12, 4,4-dimethyl-N-(4-nitrophenyl)-2,6-dioxocyclohexanecarboxamide]			104%	
COCC1C(=O)C(C(=O)Nc2cccc(C(F)(F)F)c2)C(=O)CC1(C)C (centres unmarked) [Example 33, 3-Methoxymethyl-4,4-dimethyl-2,6-dioxo-cyclohexanecarboxylic acid (3-trifluoromethyl-phenyl)-amide]		1%		
CC1(C)COC(=O)C(C(=O)Nc2cccc(C(F)(F)F)c2)C1=O (centres unmarked) [Example 24, N-[3-(trifluoromethyl)phenyl]-5,5-dimethyl-2,4-dioxotetrahydro-2H-pyran-3-carboxamide]		5%		
CC1(c2ccccc2)CCC(=O)C(C(=O)Nc2cccc(C(F)(F)F)c2)C1=O (centres unmarked) [Example 32, 3-Methyl-2,6-dioxo-3-phenyl-cyclohexanecarboxylic acid(3-trifluoromethyl-phenyl)-amide]		6%		
CC1(C)CC(=O)C(C(=O)Nc2cccc(C(F)(F)F)c2)C(=O)C1c1ccccc1 (centres unmarked) [Example 30, 4,4-Dimethyl-2,6-dioxo-3-phenyl-cyclohexanecarboxylic acid(3-trifluoromethyl-phenyl)-amide]		8%		
CCC1(C)CC(=O)C(C(=O)Nc2ccc(C(F)(F)F)cc2)C(=O)C1 (centres unmarked) [Example 17, N-(4-trifluoromethylphenyl)-4-ethyl-4-methyl-2,6-dioxocyclohexanecarboxamide]	99 to 100 °C	105%		
CC1(C)CC(=O)C(C(=O)Nc2cccc([N+](=O)[O-])c2)C(=O)O1 (centres unmarked) [Example 22, N-(3-nitrophenyl)-6,6-dimethyl-2,4-dioxotetrahydro-2H-pyran-3-carboxamide]	138.4 to 139.6 °C	10%		
CCOC(=O)C1C(=O)C(C(=O)Nc2cccc(C(F)(F)F)c2)C(=O)C2CCCCC21 (centres unmarked) [Example 31, 2,4-Dioxo-3-(3-trifluoromethyl-phenylcarbamoyl)-decahydro-naphthalene-1-carboxylic acid ethyl ester]		227%		
CCC1(C)CC(=O)C(C(=O)Nc2cccc(C(F)(F)F)c2)C(=O)C1 (centres unmarked) [Example 13, N-(3-trifluoromethylphenyl)-4-ethyl-4-methyl-2,6-dioxocyclohexanecarboxamide]	81 to 82 °C	9%		
CC1(C)CC(=O)C(C(=O)Nc2ccc(C(F)(F)F)cc2)C(=O)C1F (centres unmarked) [Example 27, 3-Fluoro-4,4-dimethyl-2,6-dioxo-cyclohexanecarboxylic acid(4-trifluoromethyl-phenyl)-amide]	129 °C	191%		
